Laboratory results: patent publication US20100137449A1, “SUBSTITUTED 1,3-CYCLOPENTADIONE MULTI-TARGET PROTEIN KINASE MODULATORS OF CANCER, ANGIOGENESIS AND THE INFLAMMATORY PATHWAYS ASSOCIATED THEREWITH” (METAPROTEOMICS, LLC, priority 2007, published 2010)
Marks after values point to notes of the source that are not given here.

How the values were obtained:
[1] = tested on: rat aortic rings; experiment: Ex vivo rat aortic ring angiogenesis assay; assay type: cell-based
Procedure: These ex vivo organo-typic cultures were treated with single compound. […] Neovascularization was evaluated as a marker of the observed angiogenic response.
Statistical analysis—Analysis of variance was performed on the six observations per treatment for the controls and two test concentrations after normalizing to the dimethyl sulfoxide control. The probability of a type I error was set at the nominal five percent level.

[2] = tested on: HUVEC; experiment: Migration wound healing assay; assay type: cell-based
Procedure: Methodology—A day before the assay, 5×10^5 endothelial cells were plated in E-well plates and grown in adequate complete medium over night. Confluent HUVEC monolayers were then scraped to create a wound. Cells were the treated with 20 ug/ml of each drug. After wounding and 6 hours later, two different fields of each wound were photographed with a phase-contrast microscope. Measurements of the width of each wound were made in each experimental condition. At the start of the experiment, the wound size was measured and scored as 100%. After 6 hours, the width of the remaining wound was measured and average percent wound closure was calculated.

[3] = tested on: endothelial cells; experiment: Proliferation assay (DNA content, Hoechst 33258); assay type: cell-based
Procedure: Methodology—A day before the assay, 1×10^4 endothelial cells were plated in quadruplicate in 24-well plates ad grown in adequate complete medium over night. Cells were then treated with 10 ug/ml and 20 ug/ml of each drug. […] The dilutions and concentrations of the dyes were chosen to yield appropriate dye/base pair ratios that are crucial to obtain maximal linearity and sensitivity of the DNA quantification assays. After an incubation time of ˜10 min, fluorescence intensities were measure. All investigations were generally performed at room temperature with the solutions protected from light. Spectrofluorimetric measurements were performed with Spectramax Gemini XS. […] Florescence values were converted into DNA concentrations according to the fluorescence intensities of DNA standard calibration curves.

[4] = target: T1, Bmx(h) (Homo sapiens, UniProt P51813); experiment: KinaseProfiler Assay
T1 sequence (P51813 1-675): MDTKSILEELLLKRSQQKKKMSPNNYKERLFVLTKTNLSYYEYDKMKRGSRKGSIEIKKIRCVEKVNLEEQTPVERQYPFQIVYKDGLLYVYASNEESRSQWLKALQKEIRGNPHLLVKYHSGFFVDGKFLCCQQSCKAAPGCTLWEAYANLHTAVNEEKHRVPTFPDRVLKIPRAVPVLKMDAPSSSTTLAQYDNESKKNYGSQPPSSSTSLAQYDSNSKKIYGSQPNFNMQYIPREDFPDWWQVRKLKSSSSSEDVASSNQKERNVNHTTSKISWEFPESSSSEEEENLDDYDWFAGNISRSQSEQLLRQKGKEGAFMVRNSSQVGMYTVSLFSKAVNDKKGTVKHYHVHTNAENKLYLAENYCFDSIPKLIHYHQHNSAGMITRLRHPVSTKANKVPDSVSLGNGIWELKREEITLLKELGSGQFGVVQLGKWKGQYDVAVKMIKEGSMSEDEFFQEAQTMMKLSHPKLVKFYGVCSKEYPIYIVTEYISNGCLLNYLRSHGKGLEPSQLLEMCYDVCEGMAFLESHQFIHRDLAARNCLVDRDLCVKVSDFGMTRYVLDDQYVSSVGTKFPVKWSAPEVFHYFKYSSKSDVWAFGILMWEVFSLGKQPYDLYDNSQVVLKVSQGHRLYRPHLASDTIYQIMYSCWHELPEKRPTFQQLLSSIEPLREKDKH

## COc1cc(O)c(CC=C(C)C)c(O)c1C(=O)/C=C/c1ccc(O)cc1 [Xanthohumol, xanthohumol]
[1]; 5.0 μg/mL
  Relative Number of Vessels vs Dimethyl Sulfoxide Controls: 95.9
[1]; 20 μg/mL
  Relative Number of Vessels vs Dimethyl Sulfoxide Controls: 100
[1]; 20 and 5 μg/mL
  vessel growth (in words): not active
[1]; summary table
  Summary of Effects: Aortic Angiogenesis: Not Active
[2]; 20 μg/mL, HUVEC, six hours
  Relative Percent Wound Closure at Six Hours vs Dimethyl Sulfoxide Controls: 45** Percent
[2]; 20 ug/ml, 6 hours
  wound closure (in words): most active of the test materials
[2]; summary table
  Summary of Effects: Migration: −60%
[3]; 24 Hours, 10 μg/mL
  Relative DNA Content vs Dimethyl Sulfoxide Controls: 95
[3]; 24 Hours, 20 μg/mL
  Relative DNA Content vs Dimethyl Sulfoxide Controls: 66**
[3]; 48 Hours, 10 μg/mL
  Relative DNA Content vs Dimethyl Sulfoxide Controls: 82**
[3]; 48 Hours, 20 μg/mL
  Relative DNA Content vs Dimethyl Sulfoxide Controls: 57**
[3]; 72 Hours, 10 μg/mL
  Relative DNA Content vs Dimethyl Sulfoxide Controls: 71**
[3]; 72 Hours, 20 μg/mL
  Relative DNA Content vs Dimethyl Sulfoxide Controls: 42**
[3]; summary table
  Summary of Effects: Proliferation: −60%

## CCC(C)C(=O)C1=C(O)[C@@](O)(C(=O)CCC(C)C)[C@H](CCC(C)C)C1=O (stereo partly shown) [TH4, tetrahydro-isoadhumulone]
[4]; 100 μg/mL
  inhibition of BMX kinase: inhibit it almost completely

## CC(C)CCC(=O)[C@]1(O)C(O)=C(C(=O)C(C)C)C(=O)[C@H]1CCC(C)C [TH1, tetrahydro-isocohumulone]
[4]; 100 μg/ml
  activity in inhibiting BMX in comparison with TH4 and TH5: about 50%
